From patent publication US20260159486A1, “BENZO[H]QUINAZOLINE-4-AMINE DERIVATIVES FOR THE TREATMENT OF CANCER” (Redona Therapeutics, Inc., priority 2021, published 2026)

Tests used:
recombinant human CLK3 = biological target: T1, recombinant human CLK3 (Homo sapiens, UniProt P49761); test: CLK3 kinase assay (LANCE Ultra); assay type: biochemical; conditions: CLK3 0.5 nM, ATP 300 μM, 3 hours at 30° C.
T1 construct: purchased Thermo Fisher Scientific PV3826
In short: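 Recombinant human CLK3 (0.5 nM) with ULight-CREBtide (50 nM) and 300 μM ATP, 3 h at 30 °C in kinase buffer; EDTA stop, then Eu-anti-phospho-CREB antibody (2 nM, 1 h RT), TR-FRET read at 665/620 nm. Inhibition normalized to DMSO and no-ATP wells; IC50 from 4-parameter fit, ten 1:3 concentrations in duplicate.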

MDA-MB-231 cells = test: MDA-MB-231 proliferation assay; assay type: cell-based; conditions: Homo sapiens, MDA-MB-231, 72 h, YO-PRO-1 Iodide readout
In short: (§1)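 Cells seeded at 750 per well, treated next day for 72 h at 37 °C with 0.5% final DMSO. Cell number read by YO-PRO-1 fluorescence after lysis, normalized to DMSO (100%) and time-zero cells (0%). GI50 from 4-parameter logistic fit, maximum constrained to 100%.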

CAL-51 cells = test: CAL-51 proliferation assay; assay type: cell-based; conditions: Homo sapiens, CAL-51, 72 h, YO-PRO-1 Iodide readout
In short: as §1

[1] = tested on: phospho-SRSF6 in MDA-MB-468 cells; test: Inhibition of phospho-SRSF6 levels in MDA-MB-468 cells (Western blot); assay type: cell-based; conditions: Homo sapiens, 2 hours, compared to DMSO control; for inhibition at 0.01 µM: 10 nM, read-out: >50% p-SRSF6 reduction at 10 nM; for inhibition at 0.1 µM: 100 nM, read-out: >50% p-SRSF6 reduction at 100 nM
Experimental: FIG. 1: FIG. 1 provides a representative Western blot showing reduction of phosphorylated-SRSF6 (P—SRSF6) in MDA-MB 468 cells by compounds of the invention. GAPDH was probed for by Western blotting to control for equal protein loading and for normalization of samples. The numbers below the blots show percent inhibition of the P—SRSF6 signal at 100 nM (A) or 10 nM (B) compared to DMSO control.
Assessment of Inhibition of Phospho-SRSF6 Levels in MDA-MB-468 Cells
MDA-MB-468 cells (ATCC, HTB-132) were cultured in DMEM (BioConcept cat. no. 1-26F03) supplemented with 10% FBS (Sigma cat. no. F9665), […] (Sigma cat. no. S8636), 1% Penicillin-Streptomycin (BioConcept cat. no. 4-01FOO-H). When cells reached a density of 70% o in 6-well plates (TPP cat. no. 92006), they were treated either with the test compound vehicle DMSO, or with experimental compounds at a final concentration of either 10 or 100 nM for 2 hours. Thereafter, the culture medium was removed and cells were collected by scraping in Lysis Buffer (20 mM Tris HCl pH7.5, 150 mM NaCl, 1 mM EGTA, 1 mM EDTA, 1% o Triton and 1% o NP-40) containing protease and phosphatase inhibitors (Halt™ Protease&Phosphatase inhibitor cocktail 100× ThermioScientific cat. no. 1861281) and 1 mM PMSF (Fluka cat. no. 93482). Cleared lysates were stored in Eppendorfftubes at −80° C. until use, and protein concentration in lysates was determined using Pierce 660 nm Protein Assay Reagent (ThermioScientific cat. no. 22660). 20 μg proteins were diluted in 4× Laemmli buffer (Biorad cat. no. 161-0747) containing 10% beta-mercaptoethanol, separated by SDS-PAGE using 10% gels, and then transferred to PVDF membranes (Trans Blot Turbo Transfer Pack BioRad cat. no. 1704156) by Trans-Blot® Turbo™ System semidry blotting methodology (BioRad). Primary antibodies were incubated in TBS-0.1% Tween-20 buffer containing 3% BSA Bovine Albumin Fr.V (Millipore cat. no. 81-053-3) overnight at 4° C. The following primary antibodies were used: Mouse anti-phosphoepitope SR proteins clone 1H4 (Millipore cat. no. MABE50) diluted 1:5000, and rabbit anti-GAPDH clone 14C10 (Cell Signaling cat. no. 2118S) to control for equal protein loading, diluted 1:2000. HRP-conjugated secondary antibodies were incubated one hour at room temperature diluted 1:5000 in TBS-0.1% Tween-20 buffer containing […] nonfat-dried bovine milk (Sigma cat. no. M7409). The following secondary antibodies were used: Goat anti-mouse-HRP (Jackson cat. no. 115-035-146) and goat anti-rabbit-HRP (Jackson cat. no. 111-035-144). Membranes were incubated with ECL Prime Western Blot Detection Reagent (Amersham cat. no. RPN2236) to detect specific signals using Fusion SOLO S device (Vilber Lourmat). Pixel intensity of the phopsho-SRSF6 (MW 55 kDa in reference to markers) and GAPDH (MW 37 kDa) signals in the Western blots were determined using Evolution-Capt image analysis software (v17.01, Vilber Lourmat). DMSO control was used to set the phospho-SRSF6 signal at baseline, phospho-SRSF6 signals for each sample were normalized by the respective GAPDH signals and percent intensity of P—SRSF6 signal at 10 and 100 nM compound compared to DMSO control was calculated (see FIG. 1).

T1 sequence (P49761 whole entry): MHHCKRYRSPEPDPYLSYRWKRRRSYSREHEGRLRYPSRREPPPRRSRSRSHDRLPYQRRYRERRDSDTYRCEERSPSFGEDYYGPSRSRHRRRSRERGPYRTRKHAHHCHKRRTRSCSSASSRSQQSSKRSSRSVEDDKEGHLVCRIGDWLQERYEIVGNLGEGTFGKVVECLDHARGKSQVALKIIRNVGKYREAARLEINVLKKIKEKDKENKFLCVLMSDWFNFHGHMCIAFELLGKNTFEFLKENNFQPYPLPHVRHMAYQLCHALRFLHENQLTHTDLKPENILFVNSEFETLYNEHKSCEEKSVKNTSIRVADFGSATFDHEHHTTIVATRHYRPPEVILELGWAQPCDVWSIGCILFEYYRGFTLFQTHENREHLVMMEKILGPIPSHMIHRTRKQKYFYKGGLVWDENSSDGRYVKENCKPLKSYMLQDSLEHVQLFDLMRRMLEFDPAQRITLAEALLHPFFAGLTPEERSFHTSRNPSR

Nc1ncnc2c1C1(CCCC1)Cc1c-2ccc(O[C@H]2CC[C@H](N)CC2)c1N [Example 37, 8-(trans-4-aminocyclohexoxy)spiro[6H-benzo[h]quinazoline-5,1′-cyclopentane]-4,7-diamine]
IC50 (recombinant human CLK3): 30 to 100 nM
GI50 (MDA-MB-231 cells): 100 to 2000 nM
GI50 (CAL-51 cells): < 100 nM
inhibition at 0.01 µM [1]: > 50%
inhibition at 0.1 µM [1]: > 50%

CN(CC(C)(C)O)c1c(O[C@H]2CC[C@H](N)CC2)ccc2c1CC(C)(C)c1c(N)ncnc1-2 [Example 40, 1-[[4-amino-8-(trans-4-aminocyclohexoxy)-5,5-dimethyl-6H-benzo[h]quinazolin-7-yl]-methyl-amino]-2-methyl-propan-2-ol]
IC50 (recombinant human CLK3): 30 to 100 nM
GI50 (MDA-MB-231 cells): 100 to 2000 nM
GI50 (CAL-51 cells): < 100 nM
inhibition at 0.01 µM [1]: > 50%
inhibition at 0.1 µM [1]: > 50%

CN(CCC#N)c1c(O[C@H]2CC[C@H](N)CC2)ccc2c1CC(C)(C)c1c(N)ncnc1-2 [Example 46, 3-[[4-amino-8-(trans-4-aminocyclohexoxy)-5,5-dimethyl-6H-benzo[h]quinazolin-7-yl]-methyl-amino]propanenitrile]
IC50 (recombinant human CLK3): < 30 nM
GI50 (MDA-MB-231 cells): < 100 nM
GI50 (CAL-51 cells): < 100 nM
inhibition at 0.01 µM [1]: > 50%
inhibition at 0.1 µM [1]: > 50%
